Source: ChEMBL document CHEMBL1142263, “Structural analogs of tylophora alkaloids may not be functional analogs” (Bioorg Med Chem Lett, 2008)
One block for each molecule: values may come before it. Calls of active or inactive are those of the source. No cut-off for these calls is given here.

Tests used:
[1] = Growth inhibition of human HepG cells; assay type: functional
CCRF-CEM = assay: Growth inhibition of human CEM cells; assay type: functional
PANC-1 = assay: Growth inhibition of human PANC1 cells; assay type: functional
[2] = Inhibition of NF-kappaB-mediated transcription in human HepG cells; assay type: cell-based
[3] = Inhibition of CRE-mediated transcription in human HepG cells; assay type: cell-based
[4] = Inhibition of AP1-mediated transcription in human HepG cells; assay type: cell-based
[5] = Inhibition of GRE-mediated transcription in human HepG cells; assay type: cell-based
HepG [6] = assay: Inhibition of DNA synthesis in human HepG cells; assay type: functional, cell-based
HepG [7] = assay: Inhibition of protein synthesis in human HepG cells; assay type: functional, cell-based
HepG [8] = assay: Inhibition of RNA synthesis in human HepG cells; assay type: functional, cell-based
[9] = Ratio of IC50 for NF-kappaB-mediated transcription in human HepG cells to GI50 for human HepG2 cells; assay type: functional
[10] = Ratio of IC50 for AP1-mediated transcription in human HepG cells to GI50 for human HepG2 cells; assay type: functional
[11] = Ratio of IC50 for GRE-mediated transcription in human HepG cells to GI50 for human HepG2 cells; assay type: functional
[12] = Ratio of IC50 for CRE-mediated transcription in human HepG cells to GI50 for human HepG2 cells; assay type: functional

SMILES: COc1ccc2c3c(c4cc(OC)c(OC)cc4c2c1)CC1CCCCN1C3 (racemic)
GI50 [1]: 1.5 nM | GI50 (CCRF-CEM): 2 nM | GI50 (PANC-1): 0.5 nM | IC50 [2]: 1.4 nM | IC50 [3]: 25 nM | IC50 [4]: 18.6 nM | IC50 [5]: 10 nM

SMILES: COc1ccc2c3c(c4cc(OC)c(OC)cc4c2c1)C[C@H]1CCCN1C3 [(-)-ANTOFINE]
GI50 [1]: 4.9 nM | GI50 (CCRF-CEM): 5.2 nM | Activity (HepG [8]): inactive | GI50 (PANC-1): 2.2 nM | Ratio [9]: 1.5 | IC50 [2]: 7.3 nM | Activity [10]: 28 | Activity [11]: 4.9 | Activity [12]: 34 | Activity (HepG [6]): Dose-dependent effect | IC50 [3]: 167 nM | IC50 [4]: 135 nM | Activity (HepG [7]): Active | IC50 [5]: 24 nM

SMILES: COc1cc2c3c(c4cc(OC)c(OC)cc4c2cc1OC)CN1CCC[C@H]1C3 [(S)-TYLOPHORINE]
GI50 [1]: 11 nM | GI50 (CCRF-CEM): 15 nM | GI50 (PANC-1): 12 nM | IC50 [2]: 41 nM | IC50 [3]: > 300 nM | IC50 [4]: > 300 nM | IC50 [5]: 229 nM

SMILES: COc1cc2c3c(c4cc(OC)c(OC)cc4c2cc1OC)CN1CCC[C@@H]1C3 [TYLOPHORINE]
GI50 [1]: 33 nM | GI50 (CCRF-CEM): 67 nM | GI50 (PANC-1): 29 nM | IC50 [2]: 317 nM | IC50 [3]: 7910 nM | IC50 [4]: 2260 nM | IC50 [5]: 534 nM

SMILES: COc1ccc2c(CNCCCCCO)cc3cc4c(cc3c2c1)OCO4
GI50 [1]: 2300 nM | GI50 (CCRF-CEM): 2000 nM | GI50 (PANC-1): 2200 nM | IC50 [2]: 7900 nM | IC50 [3]: 8600 nM | IC50 [4]: 8700 nM | IC50 [5]: 9200 nM

SMILES: COc1ccc2c(CN3CCC[C@H]3C(=O)O)cc3cc4c(cc3c2c1)OCO4
GI50 [1]: 8600 nM | GI50 (CCRF-CEM): 6200 nM | GI50 (PANC-1): 7400 nM | IC50 [2]: 23500 nM | IC50 [3]: 25000 nM | IC50 [4]: 27000 nM | IC50 [5]: > 30000 nM

SMILES: COc1ccc2c(CN3CCC[C@H]3CO)cc3cc4c(cc3c2c1)OCO4
GI50 [1]: 5400 nM | GI50 (CCRF-CEM): 2700 nM | Activity (HepG [8]): Active | GI50 (PANC-1): 6200 nM | IC50 [2]: 21000 nM | Activity (HepG [6]): Dose-dependent effect | IC50 [3]: 24000 nM | IC50 [4]: > 30000 nM | Activity (HepG [7]): inactive | IC50 [5]: 19000 nM

The next lines start with results.

GI50 (CCRF-CEM): > 2000 nM | GI50 (PANC-1): > 10000 nM | IC50 [2]: > 10000 nM | IC50 [3]: > 15000 nM | IC50 [4]: > 15000 nM | IC50 [5]: > 15000 nM
SMILES: COc1ccc2cc(C)c3cc(OC)c(OC)cc3c2c1
GI50 [1]: > 10000 nM

GI50 (CCRF-CEM): 323 nM | GI50 (PANC-1): 156 nM | IC50 [2]: 1240 nM | IC50 [3]: 2570 nM | IC50 [4]: 3380 nM | IC50 [5]: 2440 nM
SMILES: COc1ccc2c3c(c4cc5c(cc4c2c1)OCO5)C[C@H]1CCCN1C3
GI50 [1]: 371 nM | Activity (HepG [6]): Dose-dependent effect | Activity (HepG [7]): Active

GI50 (CCRF-CEM): 1700 nM | GI50 (PANC-1): 2300 nM | IC50 [2]: 7000 nM | IC50 [3]: 12100 nM | IC50 [4]: 6200 nM | IC50 [5]: 7200 nM
SMILES: COc1ccc2c(CN3CCCC[C@H]3C(=O)O)cc3cc4c(cc3c2c1)OCO4
GI50 [1]: 3000 nM

GI50 (CCRF-CEM): 1600 nM | GI50 (PANC-1): 2300 nM | IC50 [2]: 10200 nM | IC50 [3]: 18500 nM | IC50 [4]: 10000 nM | IC50 [5]: 20700 nM
SMILES: COc1ccc2c(CN3CCCC[C@H]3CO)cc3cc4c(cc3c2c1)OCO4
GI50 [1]: 3100 nM

GI50 (CCRF-CEM): 567 nM | GI50 (PANC-1): 904 nM | IC50 [2]: 2170 nM | IC50 [3]: 12000 nM | IC50 [4]: 9780 nM | IC50 [5]: 4500 nM
SMILES: COc1ccc2cc(C[C@H]3CCCCN3)c3cc(OC)c(OC)cc3c2c1
GI50 [1]: 1720 nM | Activity (HepG [8]): Dose-dependent effect | Activity [9]: 1.3 | Activity [10]: 5.7 | Activity [11]: 2.6 | Activity [12]: 7 | Activity (HepG [6]): Dose-dependent effect | Activity (HepG [7]): Dose-dependent effect
